In patent US10316371B2, “Screening methods for identifying specific Staphylococcus aureus inhibitors” (TRANA DISCOVERY, INC., priority 2011, dated 2019):

Test system: S. aureus specific Arg ASL (anticodon stem loop) RNA oligomer interaction with programmed ribosomes
Experiment: Fluorescence polarization assay of Arg ASL / programmed ribosome complex (HTS and dose response)
Format: binding, S. aureus Arg ASL; E. coli 70S ribosomes
Conditions: 6 pt dose response, fluorescence polarization after 4 hours at 25° C., corrected for auto-fluorescence; read-out: IC50
Excerpt: The assay requires the following materials: • Ribosomes—isolated from E. coli or S. aureus • fMet tRNA (Sigma or Chemical Block, Moscow) • mRNA (including the S-D sequence, the “box” sequence, the codon for methionine, and the codon for arginine that is specific for S. aureus, AGA, optionally with additional base pairs to the left of the S-D sequence and/or to the right of the codon for arginine) • Fluorescently labeled Arg ASL oliogomer • Buffer—HAM20,β • 384 well high binding micro titer plates (Matrix Technologies #4319, sold by Fischer Scientific as cat #50823855), or other appropriate plates for use in high throughput screening • Filtration (Sartorius Stedium 100 Kdalton VC 1042) or centrifugation for complex purification • EDTA—negative control (binding antagonist) • Neomycin—A-site binding enhancer (binding agonist)
A ribosome complex was prepared using the above materials and then purified prior to use in the assay. The prepared complex can be stored in concentrated form at −80° C. The complexes were diluted in buffer and dispensed onto plates. […] Fluorescence polarization was measured at approximately 4 hours after dispensing onto the micro-titer plates.
ASL^Arg was first heated for 2 min at 90° C. in water, after addition of 1/10 V of 10× buffer incubation continued on ice for at least 10 min. Prior to complex formation 70S ribosomes and tRNA were reactivated in buffer for 5 min at 45° C. followed by 10 min at 37° C.; mRNA was heated in buffer at 37° C. for 5 min. • (1000 μl×(2 μM E. coli 70S ribosomes+10 μM mRNA-Arg+4 μM tRNA^fmet)/HAM20,β→30 min @ 37° C.,+1000 μl×(0.2 μM neomycin+[…]))→20 min @ 37° C., overnight on ice • Final complex: (2000 pm P+2000 pm ASL)/2 ml=1 μM P+1 μM ASL HAM20,β:
Preparation of Complexes: The purified complex was diluted in ice cold HAM20,β such that the total fluorescence was approximately 2,000,000 units per 5 μL.
20 μl of the diluted complex was added to all 384 well plates (except for blank wells, which received 20 μL of HAM20 only, without complex) using Multidrop dispenser after which the plates were incubated at 25° C. for 4 hours (target 4.5 hours for middle of batch). Plates were then analyzed for fluorescence polarization in Analyst HT fluorescence plate reader and the following instrument settings:
The parallel and perpendicular fluorescence values of experimental wells were automatically corrected for the corresponding values obtained from the blank wells. The fluorescence polarization was calculated as following: P=(I−Ip)/(I+Ip), wherein Ip—is perpendicular fluorescence and I—is parallel fluorescence.
The percent of effect of experimental compounds was calculated as following: %-Inh=(P0−Pc)/(P0−P100)*100, wherein P0—is average polarization in 0%—inhibition control wells, P100—is average polarization in 100%—inhibition control wells, and Pc—is polarization in compound well.
The 3 sigma HTS hits were cherry picked and retested in 6 pt dose response format, using 3× serial dilution and the top nominal concentration of 100 uM.
The compounds were serially diluted in 10% DMSO and plated into 384 well plates (in a volume of 5 μL) to achieve the nominal final concentration raging from 100 μM to 0.4 μM. The plates received 20 μl of the diluted complex following incubation at 25° C. for 4 hours. Plates were then analyzed for fluorescence polarization as described above (see HTS section).
In parallel, the compounds were tested for auto-fluorescence. To this end, the compounds were plated (using the same dilution protocol) into 384 well plates. The plates received 20 μL of the HAM20 assay buffer only (without complex). The plates were incubated for 4 hrs and then were analyzed for fluorescence polarization as described above.

Row | SMILES | IC50
1 | Cc1ccc2nc(-c3ccc(NC(=O)CN4CCN(CCO)CC4)cc3)sc2c1 [Compound #169, 2-[4-(2-hydroxyethyl)-1-piperazinyl]-N-[4-(6-methyl-1,3-benzothiazol-2-yl)phenyl]acetamide] | 69.3 µM
2 | Brc1ccc(-c2nc(N3CCNCC3)c3ccccc3n2)cc1 [Compound #880, 2-(4-bromophenyl)-4-(1-piperazinyl)-quinazoline] | 19.9 µM
